The source of these data is publication PMC11960431, “A novel function of short cationic peptide FP-CATH9 without antimicrobial activity reverses resistance to minocycline in common multidrug-resistant gram-negative bacteria” (Microbiology Spectrum, 2025).

Ends that are not written are not given here. Some results are limits rather than exact numbers.

The test system of data set [1] is Clinical K. pneumoniae 3 (minocycline resistance). The experiment in a line: Disk diffusion plate assay, inhibition zone (peptide alone and antibiotic sensitization). Conditions: for Inhibition zone (mm) Contains FP-CATH9 / Inhibition zone (mm) Normal saline control: K. pneumoniae strain 3, mean ± SD, repeated three times; for Inhibition zone (mm) Contains FP-CATH9: antibiotic disk + FP-CATH9 (20 µg peptide in 10 µL); for Inhibition zone (mm) Normal saline control: antibiotic disk + normal saline, without FP-CATH9.

The subject of data set [2] is Multidrug-resistant K. pneumoniae strain 3. The experiment in a line: Time-killing curve. Conditions: K. pneumoniae strain 3, 10^6 CFU/mL, 37°C, each agent 16 µg/mL. Type of data set: cell-based, Klebsiella pneumoniae. How it is done:
After 4 h of treatment with minocycline only (16 µg/mL), drug-resistant bacterial cultures were again observed to be growing rapidly.
Refer to the method of a reference ([19]). The above clinical K. pneumoniae strain 3 was taken in logarithmic stage (oscillatory culture at 37°C) and diluted with fresh MH liquid medium into 10^6 CFU/mL bacterial suspension. […] The bacterial solution added with the drug was placed in an incubator at 37°C for shock culture, and the 50 µL bacterial solution was diluted 1,000 times at 0, 2, 4, 6, 8, 10, and 12 h, respectively. Then, the 50 µL diluted bacteria solution was coated on MH solid medium, and the bacterial colonies were counted after overnight culture at 37°C. Saline was used as a negative control.

Data set [3] deals with Multidrug-resistant K. pneumoniae. The data set is described as follows: Checkerboard assay, FP-CATH9 and minocycline. Particulars: 18 h.
In data set [4] the test system is P. aeruginosa ATCC 27853. The data set is described as follows: Disk diffusion plate assay, inhibition zone. Particulars: MH paper + 10 µL normal saline, Fig 3A. Type of data set: cell-based, Pseudomonas aeruginosa. How it is done:
(§1) The antimicrobial activity of FP-CATH9 was determined through broth microdilution and plate assays in an antibiotic disk diffusion test.
(§2) The MIC of FP-CATH9 was determined using broth microdilution as recommended by Clinical and Laboratory Standards Institute (CLSI). Sensitivity to other antibiotics was assessed using the VITEK 2 Compact System (bioMerieux, France). Antimicrobial activity was determined using the Clinical and Laboratory Standards Institute (CLSI) Standard Reference method([17]).
(§3) The concentration of the FP-CATH9 mother solution was 2 mg/mL. The control conditions included MH paper + normal saline (10 µL) , experimental conditions included MH paper + FP-CATH9 (10 µL). Total 10 µL was added to MH paper to detect the dose dependence of sensitization.

The test system of data set [5] is Clinical A. baumannii 3 (minocycline resistance). The experiment in a line: Disk diffusion plate assay, inhibition zone. It counts as cell-based, Acinetobacter baumannii. Particulars: Multidrug-resistant A. baumannii strain 3; MH paper + 10 µL normal saline; Fig 3B. Here is the method: as §1, §2, §3
Data set [6] relates to minocycline-resistant K. pneumoniae strain 3. The experiment in a line: G. mellonella infection assay. It counts as in vivo, Galleria mellonella. Particulars: G. mellonella larvae, n = 10, infected with K. pneumoniae strain 3; 16 µg/mL; 7 days. How it is done: The G. mellonella model of bacterial infection was used to evaluate the combined protective effect of FP-CATH9 and minocycline. In each G. mellonella group (n = 10), G. mellonella survival was recorded every 24 h after infection. […] After the infected group was injectioned with minocycline -resistant K. pneumoniae strain 3 , the larvae all died within 1 day.
Refer to the method of a reference ([22]). Monoclonal K. pneumoniae strain 3 was selected and cultivated in 5 mL LB broth using a constant temperature oscillator at 200 rpm/min and 37°C for 12 h. After 12 h, the culture was expanded and diluted at the ratio of 1:100. The logarithmic bacterial solution was taken, washed with normal saline, and then suspended in 1 mL system with a concentration of 1.5 × 10^8 CFU/mL. The experiment was divided into 5 groups: the minocycline-resistant K. pneumoniae strain 3 group (treated group), the group injected with FP-CATH9 (16 µg/mL) alone, the group with minocycline (16 µg/mL) alone, the group with FP-CATH9 (16 µg/mL) + minocycline (16 µg/mL), and the NS group (saline group). […]

Data set [7] relates to K. pneumoniae ATCC 700603. It counts as cell-based, Klebsiella pneumoniae. Conditions: peptide alone, repeated three times.
In data set [8] the test system is Clinical K. pneumoniae 2 (minocycline mediated). Type of data set: cell-based, Klebsiella pneumoniae. Conditions: peptide alone, repeated three times.
Data set [9] relates to Clinical A. baumannii 2 (minocycline mediated). It counts as cell-based, Acinetobacter baumannii. Conditions: peptide alone, repeated three times.
Data set [10] has as its system P. aeruginosa ATCC 27853. The data set is described as follows: MIC, broth microdilution (CLSI). It counts as cell-based, Pseudomonas aeruginosa. Conditions: peptide alone, repeated three times.
In a further data set the test system is bovine erythrocytes. The experiment in a line: Hemolytic activity. It counts as cell-based. Conditions: 5% bovine erythrocyte suspension, 128 µg/mL, 37°C, 1 h, absorbance 540 nm; 0.2% Triton X-100 positive control; mean ± SD. Here is the method:
Refer to the method of a reference ([21]). Determination of hemolytic activity. Fresh bovine blood cells (Guangzhou Hongquan Biotechnology Co., Ltd., No: HQ80074) were washed with normal saline three times and configured into 5% erythrocyte suspension. […] The supernatant was absorbed, and the absorption value was measured at a 540 nm wavelength. Normal saline was used as negative control, and 0.2% Triton X-100 was used as positive control. The percentage of hemolysis rate is calculated by the following formula: hemolysis rate % = A(sample) − A(negative control) / A(positive control) × 100%.

The subject of another data set is S. aureus ATCC 29213. The experiment in a line: MIC, broth microdilution (CLSI). It counts as cell-based. Conditions: peptide alone, repeated three times.
For another data set, the system named is A. baumannii ATCC 19606. The data set is described as follows: MIC, broth microdilution (CLSI). Conditions: peptide alone, repeated three times. Type of data set: cell-based, Acinetobacter baumannii.
For data set [11], the system named is Clinical A. baumannii 1 (minocycline sensitive). The data set is described as follows: MIC, broth microdilution (CLSI). Type of data set: cell-based, Acinetobacter baumannii. Particulars: peptide alone, repeated three times.
Data set [12] relates to Clinical K. pneumoniae 1 (minocycline sensitive). The experiment in a line: MIC, broth microdilution (CLSI). Conditions: peptide alone, repeated three times. It counts as cell-based, Klebsiella pneumoniae.
Another data set deals with E. coli ATCC BW25113. The experiment in a line: MIC, broth microdilution (CLSI). It counts as cell-based, Escherichia coli. Conditions: peptide alone, repeated three times.
The test system of data set [13] is Clinical P. aeruginosa 2 (minocycline resistance). Conditions: peptide alone, repeated three times. How it is done: as §1, §2
Data set [14] has as its system Clinical K. pneumoniae 3 (minocycline resistance). Conditions: peptide alone, repeated three times. How it is done:
as §1, §2

Data set [15] relates to Clinical A. baumannii 3 (minocycline resistance). Particulars: peptide alone, repeated three times. Here is the method: as §1, §2
Data set [16] has as its system Clinical P. aeruginosa 1 (minocycline resistance). Particulars: peptide alone, repeated three times. Here is the method:
as §1, §2

The test system of data set [17] is Clinical P. aeruginosa 3 (minocycline resistance). Particulars: peptide alone, repeated three times. How it is done:
as §1, §2

With `CNC(C)C1CCC(N)C(OC2C(N)CC(N)C(OC3OCC(C)(O)C(NC)C3O)C2O)O1` (centres unmarked) [GN, gentamicin], in data set [1], the “Inhibition zone (mm) Contains FP-CATH9” value was determined as 6 mm and the “Inhibition zone (mm) Normal saline control” value came to 6 mm.
As for `C[C@@H](O)[C@H]1C(=O)N2C(C(=O)O)=C(SCCN=CN)C[C@H]12` [IPM, imipenem], in data set [1], the “Inhibition zone (mm) Contains FP-CATH9” value was 9.03 ± 0.05 mm and the “Inhibition zone (mm) Normal saline control” value is listed as 9.06 ± 0.04 mm.
With `NCC[C@H](O)C(=O)N[C@@H]1C[C@H](N)[C@@H](O[C@H]2O[C@H](CN)[C@@H](O)[C@H](O)[C@H]2O)[C@H](O)[C@H]1O[C@H]1O[C@H](CO)[C@@H](O)[C@H](N)[C@H]1O` [AK, amikacin], in [1], the “Inhibition zone (mm) Contains FP-CATH9” value is given as 6 mm and the “Inhibition zone (mm) Normal saline control” value was 6 mm.
Consider `CO/N=C(\C(=O)N[C@@H]1C(=O)N2C(C(=O)O)=C(CSc3nc(=O)c(=O)[nH]n3C)CS[C@H]12)c1csc(N)n1` [CRO, ceftriaxone], for which, in data set [1], the “Inhibition zone (mm) Contains FP-CATH9” value is 6 mm and the “Inhibition zone (mm) Normal saline control” value stood at 6 mm.
As for `C[C@@H](O)[C@H]1C(=O)N2C(C(=O)O)=C(S[C@@H]3CN[C@H](C(=O)N(C)C)C3)[C@H](C)[C@H]12` [MEM, meropenem], in data set [1], the “Inhibition zone (mm) Contains FP-CATH9” value is given as 8.1 ± 0.08 mm and the “Inhibition zone (mm) Normal saline control” value is given as 8.16 ± 0.12 mm.
Turning to `CC1(C)S[C@@H]2[C@H](NC(=O)[C@H](N)c3ccccc3)C(=O)N2[C@H]1C(=O)O` [AMP, ampicillin], in [1], the “Inhibition zone (mm) Contains FP-CATH9” value was 6 mm and the “Inhibition zone (mm) Normal saline control” value was found to be 6 mm.
On to `CN(C)c1ccc(O)c2c1C[C@H]1C[C@H]3[C@H](N(C)C)C(O)=C(C(N)=O)C(=O)[C@@]3(O)C(O)=C1C2=O` [minocycline], for which, in data set [2], the “effect on bacterial growth at 10 h (time-killing curve)” value was “no inhibitory effect”. Moreover, the MIC in data set [3] (Klebsiella pneumoniae, read-out: MIC of minocycline alone) was 128 µg/mL. The “MIC of minocycline combined with FP-CATH9” value in data set [3] (multidrug-resistant K. pneumoniae, 5 × 10^5 CFU/mL, 37°C) is 2 µg/mL. For the same compound, the “Inhibition zone, control” value is 6 mm in the data set on P. aeruginosa ATCC 27853 [4]; 6 mm in data set [1] (Multidrug-resistant K. pneumoniae strain 3, MH paper + 10 µL normal saline, Fig 3C); 11 mm in [5]. The protective effect result in [6] is given as “little protective effect”.
Consider KRFKKFWKK [FP-CATH9], for which the “FP-CATH9 MIC” value (in data set [7]; in [8]; in data set [9]; in the data set with P. aeruginosa ATCC 27853 [10]; in the data set on S. aureus ATCC 29213; in the data set with A. baumannii ATCC 19606) was more than 512 µg/mL each time. Also, the “FP-CATH9 MIC” value (in [11]; in data set [12]; in the data set on E. coli ATCC BW25113; in data set [13]; in data set [14]; in data set [15]) was more than 512 µg/mL throughout. Besides, the “FP-CATH9 MIC” value in data set [16] and in data set [17] was more than 512 µg/mL in each case. Further, the hemolysis in the data set with bovine erythrocytes was 3.97% ± 0.42%.
On to `Cc1cc(NS(=O)(=O)c2ccc(N)cc2)no1` [SXT, sulfamethoxazole], for which, in [1], the “Inhibition zone (mm) Contains FP-CATH9” value is listed as 10.13 ± 0.12 mm and the “Inhibition zone (mm) Normal saline control” value is 10.23 ± 0.17 mm.
The matching figures for `CC(C)(O/N=C(\C(=O)N[C@@H]1C(=O)N2C(C(=O)[O-])=C(C[n+]3ccccc3)CS[C@H]12)c1csc(N)n1)C(=O)O` [CAZ, ceftazidime]: 6 mm and 6 mm.
